Experimental data as given in PubChem BioAssay (NCI).
Several values for one entry are separate records, joined by “and”; a condition that tells them apart may be missing. Equal values may be shown once.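 48-hour exposure; five concentrations; linearly interpolated endpoints. GI50 marks 50% less growth. At the TGI there is no net growth.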

Assays:
Assay in all cases: NCI-60 cell line screen, 48 h
RXF 393 renal = tested on: RXF 393 renal
OVCAR-4 ovarian = tested on: OVCAR-4 ovarian
HOP-92 NSCLC = tested on: HOP-92 NSCLC
UACC-257 melanoma = tested on: UACC-257 melanoma
SK-MEL-2 melanoma = tested on: SK-MEL-2 melanoma
SK-MEL-5 melanoma = tested on: SK-MEL-5 melanoma
SK-MEL-28 melanoma = tested on: SK-MEL-28 melanoma
COLO 205 colon = tested on: COLO 205 colon
T-47D breast = tested on: T-47D breast
MCF7 breast = tested on: MCF7 breast

SMILES	GI50 (RXF 393 renal) [µM]	TGI (RXF 393 renal)	GI50 (OVCAR-4 ovarian) [µM]	TGI (OVCAR-4 ovarian)	GI50 (HOP-92 NSCLC) [µM]	TGI (HOP-92 NSCLC)	GI50 (UACC-257 melanoma) [µM]	TGI (UACC-257 melanoma)	GI50 (SK-MEL-2 melanoma)	TGI (SK-MEL-2 melanoma)	GI50 (SK-MEL-5 melanoma) [µM]	TGI (SK-MEL-5 melanoma)	GI50 (SK-MEL-28 melanoma) [µM]	TGI (SK-MEL-28 melanoma)	GI50 (COLO 205 colon) [µM]	TGI (COLO 205 colon) [µM]	TGI (T-47D breast) [µM]	GI50 (MCF7 breast) [µM]	TGI (MCF7 breast) [µM]	GI50 (T-47D breast) [µM]
C=CN1C(=O)OC(c2ccccc2)C1c1ccccc1 (stereo not given)	> 100	> 100 µM	> 100	> 100 µM	> 100	> 100 µM	> 100	> 100 µM	> 100 µM	> 100 µM	> 100	> 100 µM	> 100	> 100 µM	> 100	> 100				
O=C(c1ccccc1)C1C(C(=O)c2ccccc2)N1Cc1ccccc1 (stereo not given)				> 100 µM		> 100 µM		> 100 µM		51.5 µM		36.7 µM		> 100 µM		58.3	49.8			
CCCCCCCCCCCC(=O)OCC1OC(n2cc(F)c(=O)[nH]c2=O)C(NC(=O)OCc2ccccc2)C(O)C1O (stereo not given)		73.6 µM		63.9 µM		40.7 µM		50.8 µM		42.5 µM		34.6 µM		35.4 µM		39.7				
O=C1c2ccccc2C(=O)c2c1ccc(C(Br)Br)c2[N+](=O)[O-]	1.26	2.72 µM	1.34	2.73 µM	1.7	3.3 µM	1.74	3.28 µM	1.91 µM	4.09 µM	1.77	3.73 µM	2.63	6.56 µM			3.89	0.598	2.54	1.63
C=C(CN1CCN(c2ccccc2OC)CC1)c1ccc(C(=O)Nc2ccccc2N)cc1			3.2	23.6 µM	5.73	44.5 µM			12.6 µM	37.9 µM	2.58	11.3 µM	2.14	> 50 µM	8.31	37.2	45.2	16.7	> 50	10.8
COC(=O)C1=C(OC)c2cc3c(cc2C(c2cc(OC)c(OC)c(OC)c2)C1C(=O)OC)OCO3 (stereo not given)		> 100 µM		> 100 µM		> 100 µM		> 100 µM		> 100 µM		> 100 µM		> 100 µM		> 100				
CC1(C)N=C(N)N=C(N)N1c1cccc(C#N)c1	4.33	> 100 µM	> 100	> 100 µM			11.7	> 100 µM	8.99 µM	> 100 µM	8.1	> 100 µM	48.8	> 100 µM	31	> 100	> 100	3.85	> 100	> 100
C/C1=C\[C@H](C)C[C@H](C)OC(=O)C[C@H](c2ccc(O)cc2)NC(=O)[C@@H](Cc2c(Br)[nH]c3ccccc23)N(C)C(=O)[C@H](C)NC(=O)[C@@H](C)C1	0.228	0.464 µM and 0.615 µM	0.0969	0.95 µM and 3.11 µM	0.0304	0.532 µM and 0.535 µM	0.0747	0.37 µM and 1.15 µM	0.0999 µM and 0.0207 µM	0.251 µM and 0.0476 µM	0.0451	0.578 µM and 0.391 µM	0.0272	0.308 µM and 1.74 µM	< 0.0132	0.887		0.208	> 100	
